Marks after values point to notes of the source that are not given here.
Test system: rat adjuvant arthritis
Assay: Rat adjuvant arthritis (Example I): paw edema, bone changes and systemic parameters after 46 days of daily treatment
Assay type: in vivo, male Lewis rats
Conditions: for Group Average Fat Free Dry Weight of Bone from Tibias: daily
Excerpt: One hundred and twenty-five (125) male Lewis rats weighing between 160 and 180 grams each were randomly divided into 12 groups of ten rats each, except the vehicle control group which had 15 rats. Each group was placed under a treatment regimen as described in the table below for a 46 day period.
Adjuvant arthritis was induced in groups one through twelve by a single intradermal injection of heat-killed Mycobacterium butyricum in paraffin oil. The drug treatments wen begun on the same day that the adjuvant was administered, and continued on a daily basis through the study. Drug doses were adjusted each week for changes in body weight.
Paw edema was measured weekly by liquid displacement, immersing the hind legs in a liquid reservoir to the anatomical hair line. Bone changes were evaluated radiographically and by chemical analysis at the conclusion of the study. Ectopic calcification was quantitated by use of a point-counting system with grids of one millimeter square.
The diphosphonate treatment solution for use on the animals in group 2, 3, 7-12, was prepared as follows: the disodium salt of dichloromethane diphosphonic acid was dissolved in saline, adjusted to a pH of 7.4 using sodium hydroxide, and sterilized by vacuum filtration (0.2 micron). The concentration of this solution was adjusted to a concentration of 5 mg of C12 MDP (disodium salt) per milliliter of solution.
The prednisolone to be administered was suspended in […]. The concentration of this suspension was adjusted to 0.10 milligram per milliliter so that it could be administered at a dose volume of 0.5 ml/100 gm body weight.
The disodium salt of Cl2MDP was administered by subcutaneous ventral flank injections. The prednisolone was administered by gastric intubation.
At the end of the treatment period, the rats were sacrificed, necropsied, and the effects of the treatment on the rats were measured in the categories listed below.

[1] = single agent versus placebo (saline and methyl cellulose)

SMILES	Group Average Fat Free Dry Weight of Bone from Tibias (Cl2MDP 2 mg/kg subcutaneous, Prednisolone none)	Group Average Fat Free Dry Weight of Bone from Tibias (Cl2MDP 5 mg/kg subcutaneous, Prednisolone none)	inhibiting bone changes associated with arthritic disease [1]	inhibiting loss of body, weight [1]	inhibiting paw edema [1]	inhibiting spleen weight/body weight ratio [1]	Group Average Fat Free Dry Weight of Bone from Tibias (Cl2MDP none, Prednisolone 0.25 mg/kg by gastric intubation)	Group Average Fat Free Dry Weight of Bone from Tibias (Cl2MDP none, Prednisolone 0.50 mg/kg by gastric intubation)	Group Average Fat Free Dry Weight of Bone from Tibias (Cl2MDP none, Prednisolone 2.50 mg/kg by gastric intubation)	inhibiting pathological caldivication (prednisolone alone)	inhibiting the calcium and phosphorus in bone (prednisolone alone)
O=P(O)(O)C(Cl)(Cl)P(=O)(O)O [Cl2MDP, Dichloromethanediphosphonic acid]	372.48*	382.42*	significantly more effective than the placebo	significantly more effective than the placebo	significantly more effective than the placebo	significantly more effective than the placebo	–	–	–	–	–
C[C@]12C=CC(=O)C=C1CC[C@@H]1[C@@H]2[C@@H](O)C[C@@]2(C)[C@H]1CC[C@]2(O)C(=O)CO [Prednisolone, 11 β, 17, 21-Trihydroxypregna-1,4-diene-3, 20-dione]	–	–	–	–	effective	–	308.96	311.56	315.58	effective	effective

Reference: patent EP0088462A2, “Anti-inflammatory and rheumatic composition containing organophosphonate and steroid” (THE PROCTER & GAMBLE COMPANY, priority 1982, dated 1983)
